Assays:
Carbonic anhydrase 2 = Carbonic anhydrase 2 (Homo sapiens, UniProt P00918)
Carbonic anhydrase 1 = Carbonic anhydrase 1 (Homo sapiens, UniProt P00915)
Carbonic anhydrase 1, sequence (P00915 whole entry): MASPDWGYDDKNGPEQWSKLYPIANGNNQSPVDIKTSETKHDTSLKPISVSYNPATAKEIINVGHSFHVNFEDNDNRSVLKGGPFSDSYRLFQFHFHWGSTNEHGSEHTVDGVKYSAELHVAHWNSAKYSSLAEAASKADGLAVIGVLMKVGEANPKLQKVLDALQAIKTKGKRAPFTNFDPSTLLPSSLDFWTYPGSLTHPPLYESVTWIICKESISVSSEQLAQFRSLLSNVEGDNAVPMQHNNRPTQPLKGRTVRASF

Row | Structure (SMILES) | Ki (Carbonic anhydrase 2) | Ki (Carbonic anhydrase 1)
1 | O=S(=O)(O)NS(=O)(=O)c1c(F)c(F)c(F)c(F)c1F [(PENTAFLUOROPHENYL)SULFONYLSULFAMIC ACID] | 1.2 µM | 0.05 µM
2 | NS(=O)(=O)NS(=O)(=O)c1c(F)c(F)c(F)c(F)c1F | 0.01 µM | 0.003 µM
3 | O=C(NS(=O)(=O)O)NS(=O)(=O)c1ccc(F)cc1 | 0.9 µM | 0.08 µM
4 | C/C(=N/S(N)(=O)=O)c1ccc(N(C)C)cc1 | 0.02 µM | 
5 | NS(=O)(=O)NC(=O)NS(=O)(=O)c1ccc(F)cc1 | 0.02 µM | 0.006 µM
6 | NS(=O)(=O)NS(=O)(=O)c1cccc(C(=O)O)c1 | 0.01 µM | 0.006 µM
